From patent US20210177828A1, “TAM FAMILY KINASE /AND CSF1R KINASE INHIBITOR AND USE THEREOF” (Nanjing Transthera Biosciences Co., Ltd., priority 2018, published 2021) come the findings set out here.

One experiment concerns the target T1, Tyro-3 (h) (Homo sapiens, UniProt Q06418).
T1 sequence (Q06418 41-890): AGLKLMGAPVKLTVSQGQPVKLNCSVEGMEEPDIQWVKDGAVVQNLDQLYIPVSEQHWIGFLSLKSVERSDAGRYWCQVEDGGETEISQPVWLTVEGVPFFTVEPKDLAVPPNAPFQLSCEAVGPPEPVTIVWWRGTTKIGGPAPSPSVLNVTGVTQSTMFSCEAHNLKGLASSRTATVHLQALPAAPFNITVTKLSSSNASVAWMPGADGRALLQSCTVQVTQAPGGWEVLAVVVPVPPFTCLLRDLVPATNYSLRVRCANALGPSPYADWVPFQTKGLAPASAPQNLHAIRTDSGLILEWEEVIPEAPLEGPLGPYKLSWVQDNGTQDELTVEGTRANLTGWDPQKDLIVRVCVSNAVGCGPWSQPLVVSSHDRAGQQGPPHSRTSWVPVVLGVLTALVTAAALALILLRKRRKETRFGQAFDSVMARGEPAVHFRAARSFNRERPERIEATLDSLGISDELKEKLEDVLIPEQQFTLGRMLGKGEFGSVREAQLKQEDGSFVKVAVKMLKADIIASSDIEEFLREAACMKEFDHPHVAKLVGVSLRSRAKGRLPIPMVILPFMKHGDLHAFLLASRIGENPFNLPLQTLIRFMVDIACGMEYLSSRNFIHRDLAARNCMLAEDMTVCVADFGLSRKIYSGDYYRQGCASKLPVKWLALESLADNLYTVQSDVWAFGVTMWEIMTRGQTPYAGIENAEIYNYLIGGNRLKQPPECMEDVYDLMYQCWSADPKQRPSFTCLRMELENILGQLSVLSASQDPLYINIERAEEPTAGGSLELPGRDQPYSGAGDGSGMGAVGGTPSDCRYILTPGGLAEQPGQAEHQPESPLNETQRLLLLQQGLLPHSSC
The experiment can be described thus: Enzymatic activity assay, Tyro-3 (h), [γ-33P]-ATP filter assay. The experiment is classed as biochemical. The following applies: 10 μM ATP, 40 min room temperature; read-out: Inhibitory activity IC50 Tyro-3(h). The procedure: Compounds were each dissolved in 100% DMSO to prepare stock solutions with a maximum concentration of 500 μM.
Compound working solutions (50×) were prepared by diluting a compound stock solution to a final concentration of 500, 150, 50, 15, 5, 1.5, 0.5, 0.15 and 0.05 μM.
An enzyme solution with a final concentration of 38 nM was prepared by dissolving Tyro3 (h) enzyme in a mixture of 8 mM MOPS (pH 7.0), 0.2 mM EDTA, 1 mM MnCl2 and 250 μM KVEKIGEGTYGVVYK. A Mg/ATP mixture of 10 mM magnesium acetate and 10 μM [γ-^33P]-ATP was used to activate the enzymatic reaction.
A compound working solution was added to a 384-well plate, with final concentrations of 10,000, 3,000, 1,000, 300, 100, 30, 10, 3 and 1 nM, and then different enzymatic reaction solutions prepared according to the above conditions were added. The reaction solutions were incubated at room temperature for 40 min, and then 0.5% phosphoric acid solutions were added to terminate the reaction. 10 μL of the reaction solution was added dropwise to P30 filter paper, washed 4 times with a 0.425% phosphoric acid solution and once with methanol, and then placed in a scintillation counter for detection. Gray analysis was performed on the results with Image J software, and IC50 values were calculated with GraphPad 5.0 software.

In a further experiment the target is T2, MDA-MB-231 cell pAxl (Homo sapiens, UniProt P30530).
T2 construct: endogenous in cells; host or cells: MDA-MB-231
T2 sequence (P30530 26-894): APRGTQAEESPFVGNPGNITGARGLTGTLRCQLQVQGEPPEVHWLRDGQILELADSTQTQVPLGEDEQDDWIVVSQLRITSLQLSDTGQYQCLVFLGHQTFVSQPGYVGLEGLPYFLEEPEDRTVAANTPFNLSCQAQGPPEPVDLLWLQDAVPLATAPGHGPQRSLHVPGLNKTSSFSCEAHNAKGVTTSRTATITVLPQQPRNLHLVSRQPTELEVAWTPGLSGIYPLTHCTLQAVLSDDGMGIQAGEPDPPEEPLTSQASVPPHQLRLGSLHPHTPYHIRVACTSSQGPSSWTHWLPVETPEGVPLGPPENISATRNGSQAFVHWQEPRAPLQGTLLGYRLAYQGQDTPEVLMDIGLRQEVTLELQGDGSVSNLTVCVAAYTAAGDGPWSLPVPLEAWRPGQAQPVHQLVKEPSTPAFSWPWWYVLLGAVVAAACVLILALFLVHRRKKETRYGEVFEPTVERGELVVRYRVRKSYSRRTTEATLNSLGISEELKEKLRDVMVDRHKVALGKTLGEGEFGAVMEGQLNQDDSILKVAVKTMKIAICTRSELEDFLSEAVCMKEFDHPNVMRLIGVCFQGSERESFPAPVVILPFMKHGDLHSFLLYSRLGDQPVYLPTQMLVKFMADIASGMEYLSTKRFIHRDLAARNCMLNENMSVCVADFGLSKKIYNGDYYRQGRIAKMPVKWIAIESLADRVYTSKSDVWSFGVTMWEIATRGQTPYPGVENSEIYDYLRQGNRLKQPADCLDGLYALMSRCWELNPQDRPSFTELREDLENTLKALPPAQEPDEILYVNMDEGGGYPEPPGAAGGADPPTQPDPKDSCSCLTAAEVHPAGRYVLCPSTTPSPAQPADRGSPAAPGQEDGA
The experiment can be described thus: Inhibitory activity on cell pAxl, MDA-MB-231 cells, hGAS6 stimulation, Western Blot. The following applies: hGAS6 200 ng/mL. It is filed as cell-based. The procedure: MDA-MB-231 is a breast cancer cell.
MDA-MB-231 cells were inoculated to a 6-well plate (containing 10% FBS DMEM medium, […] cells per well) and adherently cultivated at 37° C., and 5% CO2 for 18 hrs. The cells were starved overnight, and then compound solutions with different concentrations were added. Compounds 1 and 2 had final concentrations of 1.1, 3.3 and 10 nM, and the remaining compounds had final concentrations of 1.1, 3.3, 10 and 30 nM. […] There was a medium containing 1‰DMSO in the negative control well. The cells were incubated at 37° C., and 5% CO2 for 60 min, and then hGAS6 (R&D, final concentration: 200 ng/mL) was added to each well. The cells were further incubated for 60 min, and then the total protein of the cells was extracted for Western Blot experiment. Gray analysis was performed on the results with Image J software, and IC50 values were calculated with GraphPad 5.0 software. The inhibitory activities of the compounds on cell pAxl were detected.

For `COc1cc2nccc(Oc3ccc(NC(=O)c4nn(C5CCOCC5)cc(-c5ccc(C)cc5)c4=O)nc3)c2cc1OC` [Compound 17, N-(5-((6,7-dimethoxyquinolin-4-yl)oxy)pyridin-2-yl)-4-oxo-1-(tetrahydro-2H-pyran-4-yl)-5-(p-tolyl)-1,4-dihydropyridazin-3-carboxamide], the results for the IC50 at Tyro-3 (h) and on MDA-MB-231 cell pAxl were 14 nM and < 1.1 nM, respectively.

Turning to `COc1cc2nccc(Oc3cnc(NC(=O)c4nn(C5CCOCC5)cc(-c5ccc(C)cc5)c4=O)nc3)c2cc1OC` [Compound 18, N-(5-((6,7-dimethoxyquinolin-4-yl)oxy)pyrimidin-2-yl)-4-oxo-1-(tetrahydro-2H-pyran-4-yl)-5-(p-tolyl)-1,4-dihydropyridazin-3-carboxamide], the values for the half-inhibitory concentration (IC50) on Tyro-3 (h) and on MDA-MB-231 cell pAxl were 58 nM and < 1.1 nM, respectively.

For `COc1cc2nccc(Oc3ccc(NC(=O)c4cn(C5CCOCC5)cc(-c5ccc(C)cc5)c4=O)nc3)c2cc1OC` [Compound 19, N-(5-((6,7-dimethoxyquinolin-4-yl)oxy)pyridin-2-yl)-4-oxo-1-(tetrahydro-2H-pyran-4-yl)-5-(p-tolyl)-1,4-dihydropyridin-3-carboxamide], the IC50 at Tyro-3 (h) was 34 nM; on MDA-MB-231 cell pAxl, < 1.1 nM.

With `COc1cc2nccc(Oc3cnc(NC(=O)c4cn(C5CCOCC5)cc(-c5ccc(C)cc5)c4=O)nc3)c2cc1OC` [Compound 20, N-(5-((6,7-dimethoxyquinolin-4-yl)oxy)pyrimidin-2-yl)-4-oxo-1-(tetrahydro-2H-pyran-4-yl)-5-(p-tolyl)-1,4-dihydropyridin-3-carboxamide], the IC50 at Tyro-3 (h) was 84 nM; at MDA-MB-231 cell pAxl, < 10 nM.

`COc1cc2nccc(Oc3ccc(NC(=O)c4cn(CC5CCOCC5)cc(-c5ccc(C)cc5)c4=O)nn3)c2cc1OC` [Compound 24, N-(6-((6,7-dimethoxyquinolin-4-yl)oxy)pyridazin-3-yl)-4-oxo-1-((tetrahydro-2H-pyran-4-yl)methyl)-5-(p-tolyl)-1,4-dihydropyridin-3-carboxamide]: the IC50 was 212 nM at Tyro-3 (h) and < 10 nM at MDA-MB-231 cell pAxl.

Take `COc1cc2nccc(Oc3ccc(NC(=O)c4cn(CC5CCOCC5)c5ccccc5c4=O)nc3)c2cc1OC` [Compound 25, N-(5-((6,7-dimethoxyquinolin-4-yl)oxy)pyridin-2-yl)-4-oxo-1-((tetrahydro-2H-pyran-4-yl)methyl)-1,4-dihydroquinolin-3-carboxamide]: the half-maximal inhibitory concentration (IC50) is 205 nM on Tyro-3 (h) and ≤ 503 nM at MDA-MB-231 cell pAxl.

On to `COc1cc2nccc(Oc3ccc(NC(=O)c4cc(CC5CCOCC5)cn(-c5ccc(C)cc5)c4=O)nc3)c2cc1OC` [Compound 26, N-(5-((6,7-dimethoxyquinolin-4-yl)oxy)pyridin-2-yl)-oxo-5-((tetrahydro-2H-pyran-4-yl)methyl)-1-(p-tolyl)-1,2-dihydropyridin-3-carboxamide], for which the concentration for half-maximal inhibition (IC50) on Tyro-3 (h) is 48 nM; against MDA-MB-231 cell pAxl, < 3.3 nM.
